Test results from patent EP0423524A2, “Propiophenone derivatives and their preparation and pharmaceutical use” (MARUHO Co., Ltd., priority 1989, dated 1991).
Structures can show the parent of a compound that is named as a salt.

Experiments:
Format in all cases: in vivo
Male Slc-ddy mice [1] = assay: Inhibitory effect on the motor coordination (rotating rod test); conditions: oral, rotating rod 30 min after administration, falling off within 60 s counted as positive, 95% confidence limit in brackets
Protocol: Male Slc-ddy mice of 20 - 25 g (5 weeks old) were used in groups of 7 - 10. The test compounds were used dissolved or suspended in 0.5 % CMC or 0.5 % Tween 80 solution. Each test compound (300 - 600 mg/10 ml/kg) was orally administered to the mice, and after 30 min the mice were put on a 3-cm diameter rod rotating at a speed of 10 min⁻¹ in a direction opposite to the rotation direction, and the time of staying on it was measured to a maximum of 180 s. Those falling off of the rotating rod within 60 s were judged as having an inhibitory effect on the motor coordination and, with the number of cases as index, comparison was made with the reference compound (eperisone hydrochloride).
The mice were trained in advance to be able to stay on the rotating rod for more than 300 s, and those capable of staying on it for more than 250 s immediately before testing were used.

Male Slc-ddy mice [2] = assay: Anti-nicotinic effect (survival after intravenous nicotine bitartrate); conditions: Mus musculus, 0.5 h, oral, nicotine bitartrate 3 mg/10 ml/kg i.v. after 30 min, Litchfield-Wilcoxon, 95 % confidence limit in brackets, read-out: ED₅₀ values for the anti-nicotinic effect
Protocol: Experimental Method of Male Slc-ddy mice/30 - 35 g (6 weeks old) were used as test animals in groups of 7 - 10. The test compounds (100 mg/10 ml/kg) were orally administered to the mice, and after 30 min, nicotine bitartrate (3 mg/10 ml/kg) was administered intravenously, and the number of animals killed due to tonic convulsion was counted. The surviving animals were judged as having an anti-nicotinic effect, and with the number thereof as index the comparison concerning the anti-nicotinic effect was made with the reference compound (eperisone hydrochloride).

Male Slc-ddy mice [3] = assay: Anti-strychnine effect (time from tonic convulsions to death after subcutaneous strychnine nitrate); conditions: mice, oral, strychnine nitrate 1.5 mg/10 ml/kg s.c. after 30 min; Litchfield-Wilcoxon; 95% confidence limit in brackets
Protocol: Strychnine is known to enhance reflex stimulation, among others, of spinal cord to induce convulsions. If this effect of strychnine can be suppressed by administration of any of the above-mentioned compounds, this compound is expected to have a central muscle relaxation effect.
Male Slc-ddy mice of 25 - 30 g (5 weeks old) were used in groups of 7 - 10.
The test compounds (100 mg/10 ml/kg) were orally administered to the mice, and after 30 min, 1.5 mg/10 ml/kg of strychnine nitrate was administered subcutaneously, and the time was measured from the occurence of tonic convulsions to the death of the animals. Cases in which this time was extended to 6 min or more were judged as corresponding to an anti-strychnine effect, and with the number of such cases as index, comparison was made with the reference compound (eperisone hydrochloride). […] The ED₅₀ values (95% confidence limit) for the anti-strychnine effect were determined by the Litchfield-Wilcoxon method and are shown in Table 3.

Acute toxicity test = conditions: mouse, in vivo, po, mice, observation for 7 days, Litchfield-Wilcoxon, 95% confidence limit in brackets, read-out: LD₅₀ values (50% of lethal dose)
Protocol: (§1) Male ddy mice of 20-30 g were used as test animals in groups of 5-10. The test compounds were dissolved or suspended in 0.5 % Tween 80 aqueous solution, and orally administered to the mice. Observation was made for 7 days after administration. The LD₅₀ values (50% of lethal dose) (95% confidence limit) were determined by the Litchfield-Wilconxon method, and are shown in Table 4.

Male ddy mice = assay: Acute toxicity test; conditions: oral
Protocol: as §1

SMILES | ED₅₀ values for the inhibitory effect on the motor coordination (Male Slc-ddy mice [1]) | ED50 (Male Slc-ddy mice [2]) | ED₅₀ values for the anti-strychnine effect (Male Slc-ddy mice [3]) | LD50 at 168 h (Acute toxicity test) | minimum lethal dose relative to the minimum amount necessary for developing a pharmacological effect (safety margin) (Male ddy mice) | LD₅₀ values (50% of lethal dose) (Male ddy mice; observation for 7 days, Litchfield-Wilcoxon, 95% confidence limit in brackets, 10080 min)
CCc1ccc(C(=O)C(C)CN2CCCCC2)cc1 (stereo not drawn) [Eperisone hydrochloride, reference compound] | positive cases not in excess of 50% | 140 mg/kg | No effect detected | 303 mg/kg | the minimum lethal dose is close to the minimum amount necessary for developing a pharmacological effect | –
CCc1ccc(C(=O)C(C)Cn2ccnc2)cc1 (stereo not drawn) [Hydrochloride of compound 2] | – | – | – | – | – | 225 mg/kg (182-278)
